# Reference: PubChem BioAssay (NCI)
#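 Exposure lasted 48 hours, with cells grown in 96-well plates and compounds tested at five concentrations. GI50: concentration for 50% inhibition of growth. TGI: concentration producing complete growth inhibition.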
# Experiments:
# Experiment in all cases: NCI tumour cell line growth inhibition, 48 h
# A549 NSCLC = test system: A549 NSCLC
# CAKI-1 renal = test system: CAKI-1 renal
# HOP-62 NSCLC = test system: HOP-62 NSCLC
# MOLT-4 leukemia = test system: MOLT-4 leukemia
# NCI-H23 lung = test system: NCI-H23 lung
# NCI/ADR-RES ovarian = test system: NCI/ADR-RES ovarian
# OVCAR-5 ovarian = test system: OVCAR-5 ovarian
# PC-3 prostate = test system: PC-3 prostate
# T-47D breast = test system: T-47D breast
# UO-31 renal = test system: UO-31 renal
Structure (SMILES),TGI (A549 NSCLC),TGI (CAKI-1 renal),TGI (HOP-62 NSCLC),TGI (MOLT-4 leukemia),TGI (NCI-H23 lung),TGI (NCI/ADR-RES ovarian),TGI (OVCAR-5 ovarian),TGI (PC-3 prostate),TGI (T-47D breast),TGI (UO-31 renal),GI50 (A549 NSCLC),GI50 (CAKI-1 renal),GI50 (HOP-62 NSCLC),GI50 (MOLT-4 leukemia),GI50 (NCI-H23 lung),GI50 (NCI/ADR-RES ovarian),GI50 (OVCAR-5 ovarian),GI50 (PC-3 prostate),GI50 (UO-31 renal)
CC(=NNC(=S)Nc1ccccc1)c1cccc(C(C)=NNC(=S)Nc2ccccc2)n1,> 46.4 µM,> 22.9 µM,> 100 µM,> 30.1 µM,> 100 µM,> 100 µM,> 100 µM,> 100 µM,> 100 µM,> 52.1 µM,,,,,,,,,
Cn1c(SCc2ccc(F)cc2)nnc1C12CC3CC(CC(C3)C1)C2,> 100 µM,> 100 µM,> 100 µM,57.1 µM,> 100 µM,> 100 µM,> 100 µM,> 100 µM,> 100 µM,> 100 µM,,,,,,,,,
NC(=O)c1c(NC(=O)c2ccccc2)sc2c1CCC(=O)C2,> 100 µM,3.95 µM,> 100 µM,8.3 µM,5.83 µM,10.4 µM,11 µM,17.6 µM,,2.32 µM,3.58 µM,0.637 µM,3.66 µM,1.12 µM,0.627 µM,1.28 µM,1.77 µM,0.319 µM,0.865 µM
COc1ccc(-c2nc(SCC(=O)NNC(=S)Nc3ccccc3)[nH]c2-c2ccc(OC)cc2)cc1,> 100 µM,> 100 µM,46.1 µM,25.3 µM,39.3 µM,> 100 µM,49 µM,73.7 µM,85 µM,> 100 µM,,,,,,,,,
COC1=CC(=O)c2c(c(-c3nc(C)cs3)cn2C)C1=O,12 µM,21.3 µM,25.3 µM,> 80.9 µM,6.92 µM,31 µM,> 43.9 µM,> 55.4 µM,53.4 µM,> 91.2 µM,,,,,,,,,
NS(=O)(=O)c1ccc(NC(=S)/N=C/C2=C(O)c3ccccc3C2=O)cc1,> 100 µM,> 100 µM,> 100 µM,> 100 µM,> 100 µM,,> 100 µM,> 100 µM,> 100 µM,85.6 µM,,,,,,,,,
O=C1OC(C2Cc3ccc4ccccc4c3C2=O)c2ccccc21 (stereo not drawn),> 100 µM,> 100 µM,,> 100 µM,,> 100 µM,> 100 µM,> 100 µM,> 100 µM,> 100 µM,,,,,,,,,
N[C@@H](Cc1ccccc1)C(=O)N1CCC[C@@H]1P(=O)(Oc1ccccc1)Oc1ccccc1,> 100 µM,> 100 µM,> 100 µM,> 100 µM,> 100 µM,> 100 µM,> 100 µM,> 100 µM,> 100 µM,> 100 µM,,,,,,,,,
Cc1nc(C)c(C(=O)NNC(=O)C[N+](C)(C)C)cc1C(=O)NNC(=O)C[N+](C)(C)C,> 100 µM,> 100 µM,> 100 µM,,> 100 µM,> 100 µM,> 100 µM,,> 100 µM,> 100 µM,,,,,,,,,
NCCCN1c2ccccc2Sc2ccc(Cl)cc21,> 10 µM,> 10 µM,> 10 µM,> 10 µM,> 10 µM,> 10 µM,> 9.34 µM,> 10 µM,> 9.08 µM,> 10 µM,,,,,,,,,
O=P(O)(O)C(N=C(Nc1ccccc1)Nc1ccccc1)P(=O)(O)O,> 100 µM,> 100 µM,> 100 µM,,> 100 µM,> 100 µM,> 100 µM,> 100 µM,,> 100 µM,,,,,,,,,
CC1=CCC([C@@](C)(O)CCCC(C)(C)N=C=S)CC1 (stereo partly drawn),34.2 µM,,40 µM,50.5 µM,38.5 µM,38.9 µM,34.9 µM,33 µM,44.2 µM,26.7 µM,,,,,,,,,
Cc1ccc(S(=O)(=O)n2c3c(c4ccccc42)CCN2C[C@H]([C@H](C)Br)CC[C@@H]32)cc1,> 100 µM,> 100 µM,> 100 µM,> 100 µM,> 100 µM,> 100 µM,> 100 µM,> 100 µM,> 100 µM,> 100 µM,,,,,,,,,
CSc1cc(-c2cccs2)sc1-c1cc(SC)c(-c2sc(-c3sc(-c4cccs4)cc3SC)cc2SC)s1,> 100 µM,> 100 µM,> 100 µM,> 100 µM,> 100 µM,> 100 µM,> 100 µM,> 100 µM,> 100 µM,,,,,,,,,,
Oc1cc(Cl)cc2cccnc12,> 100 µM,> 100 µM,> 100 µM,3.98 µM,33.4 µM,5.37 µM,> 100 µM,> 100 µM,26.2 µM,> 100 µM,,,,,,,,,
CC1(C)OC[C@@H](O)[C@H](C#N)CO1,> 100 µM,> 100 µM,> 100 µM,> 100 µM,> 100 µM,,> 100 µM,> 100 µM,> 100 µM,> 100 µM,,,,,,,,,
CCCNc1ncnc2c1ncn2C,> 100 µM,> 100 µM,> 100 µM,> 100 µM,> 100 µM,> 100 µM,,> 100 µM,> 100 µM,> 100 µM,,,,,,,,,
O=C(O)CN1CCNCCN(CC(=O)O)CCN(CC(=O)O)CCNCC1,> 100 µM,> 100 µM,> 100 µM,> 100 µM,,> 100 µM,> 100 µM,> 100 µM,> 100 µM,> 100 µM,,,,,,,,,
Cc1nn(-c2ccccc2)c2c1C(c1cc3ccccc3nc1Cl)NC(=O)N2 (stereo not drawn),> 100 µM,> 100 µM,54.4 µM,,37.6 µM,> 100 µM,43.8 µM,43.7 µM,> 100 µM,28.2 µM,,,,,,,,,
CCCCCCCCCCCCCCCCNc1cccc2ccccc12,> 100 µM,,> 100 µM,> 100 µM,> 100 µM,,,,,> 100 µM,,,,,,,,,
CCCCCC#CCOC(=O)C(=[N+]=[N-])P(=O)(c1ccccc1)c1ccccc1,> 10 µM,,> 10 µM,> 10 µM,> 10 µM,,> 10 µM,> 10 µM,> 10 µM,> 10 µM,,,,,,,,,
